Experimental findings from PubChem BioAssay AID504341 (Southern Research Specialized Biocontainment Screening …, 2011) are described below.

Calls of active or inactive are those of the source.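 Rule for the calls: active = compounds blocking at least half of HIV-1 envelope-driven cell fusion at some tested dose; inactive = the rest.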

In the test the test system is MAGI-CCR5/HeLa-R5-16 cell fusion, beta-gal luminescence. As to the kind of experiment: CCR5-tropic HIV-1 entry blockers, cell-cell fusion – MAGI-CCR5/HeLa-R5-16 cells, beta-gal luminescence, 2% serum, dose response (AID 504341).
Usually IC50 stands for the concentration needed to halve the response being measured. With `CCc1ccc(-c2ccc(/C=C3\SC(=S)N(CCCC(=O)O)C3=O)o2)cc1`, the IC50 was 62.4 µM.

Turning to `Cc1ccc(-n2cccc2/C=C2/C(=N)N3C(=NC2=O)SN=C3S(C)(=O)=O)cc1C`, the IC50 is 33.1 µM.

For the compound `COc1ccc(Cn2c(O)cc3nn(-c4nc5ccccc5s4)c(=O)c-3c2C)cc1`, the IC50 is 15.3 µM.

Take `COc1cccc(C2C(C(=O)Nc3ccccc3)=C(C)N=c3sc(=Cc4ccc(OCC(=O)O)cc4)c(=O)n32)c1` (stereo not drawn): the IC50 was > 100 µM (inactive).

With `CCOC(=O)C1=C(c2ccccc2)N=c2s/c(=C\c3ccc(OCC(=O)O)cc3)c(=O)n2C1c1cccc(OC)c1` (stereo not drawn), the IC50 was 25.8 µM.

For the compound `CCOC(=O)C1=C(C)N=c2sc(=Cc3ccc(OCC(=O)O)cc3)c(=O)n2C1c1ccccc1OC` (stereo not drawn), the IC50 is 48.8 µM.

Consider `CS(=O)(=O)C1=NSC2=NC(=O)/C(=C\c3cccn3-c3ccc(Cl)cc3)C(=N)N21`, for which the IC50 was 34.8 µM.

In the case of `O=C(O)CCCN1C(=O)/C(=C\c2ccc(-c3cccc(Cl)c3)o2)SC1=S`, the IC50 was 28.5 µM.

Take `Cc1ccc(-n2cccc2/C=C2/C(=N)N3C(=NC2=O)SN=C3S(C)(=O)=O)cc1`: the IC50 is 38 µM.

On to `CC1=C(C(=O)OC(C)C)C(c2ccc(Cl)cc2)n2c(s/c(=C\c3ccc(OCC(=O)O)cc3)c2=O)=N1` (stereo not drawn), for which the IC50 is 56.8 µM.

For `Cc1c2c(=O)n(-c3nc4ccccc4s3)nc-2cc(O)n1Cc1ccccc1Cl`, the IC50 was 45.6 µM.

`O=C(O)c1ccc([C@@H]2Nc3ccc(S(=O)(=O)Nc4cccc5ccccc45)cc3[C@@H]3C=CC[C@@H]32)cc1`: the IC50 was 23.5 µM.

As to `CS(=O)(=O)C1=NSC2=NC(=O)/C(=C\c3cccn3-c3ccc(Br)cc3)C(=N)N21`, the IC50 was 28.5 µM.

For `CS(=O)(=O)C1=NSC2=NC(=O)/C(=C\c3cccn3-c3cc(Cl)cc(Cl)c3)C(=N)N21`, the IC50 was 32.3 µM.

As to `CCOC(=O)C1=C(C)N=c2sc(=Cc3ccc(OCC(=O)O)cc3)c(=O)n2C1c1cc(OC)c(OC)c(OC)c1` (stereo not drawn), the IC50 is 75.5 µM.

Turning to `CCOC(=O)C1=C(C)N=c2s/c(=C\c3ccc(OCC(=O)O)cc3)c(=O)n2C1c1ccc(Cl)cc1` (stereo not drawn), the IC50 was 34.9 µM.

Regarding `Cc1c2c(=O)n(-c3nc4ccccc4s3)nc-2cc(O)n1C1CC1`, the concentration for half-maximal inhibition (IC50) is 15.5 µM.

In the case of `O=C(O)CCCN1C(=O)/C(=C\c2ccc(-c3ccc(Cl)cc3)o2)SC1=S`, the IC50 is 8.29 µM.

Turning to `Cc1ccc(-c2ccc(/C=C3\SC(=S)N(CCCC(=O)O)C3=O)o2)cc1`, the IC50 was 29.1 µM.

As for `CCc1ccc(-n2cccc2/C=C2/C(=N)N3C(=NC2=O)SN=C3S(C)(=O)=O)cc1`, the IC50 was 33.3 µM.

Take `COc1ccccc1NS(=O)(=O)c1ccc2c(c1)C1C=CCC1C(c1ccc(C(=O)O)cc1)N2` (stereo not drawn): the IC50 is 38.7 µM.

Take `O=C(O)CCCN1C(=O)/C(=C/c2ccc(-c3cccc(C(F)(F)F)c3)o2)SC1=S`: the IC50 is 24.5 µM.

On to `Cc1c2c(=O)n(-c3nc4ccccc4s3)nc-2cc(O)n1Cc1cccs1`, for which the half-inhibitory concentration (IC50) was 34.5 µM.

For `CCOC(=O)C1=C(C)N=c2sc(=Cc3ccc(OCC(=O)O)cc3)c(=O)n2C1c1ccc(OC)cc1OC` (stereo not drawn), the IC50 is 29 µM.

On to `O=C(O)CCCN1C(=O)/C(=C/c2ccc(-c3ccc(Cl)c(Cl)c3)o2)SC1=S`, for which the IC50 was 8.68 µM.

As for `Nc1sc2ccccc2[n+]1Cc1ccc(C(=O)O)cc1`, the IC50 is > 100 µM (inactive).

Regarding `Cc1c2c(=O)n(-c3nc4ccccc4s3)nc-2cc(O)n1Cc1ccc(F)cc1`, the IC50 is 20 µM.

`CCOc1ccc(-n2cccc2/C=C2/C(=N)N3C(=NC2=O)SN=C3S(C)(=O)=O)cc1`: the IC50 was 39.5 µM.

Turning to `COc1ccc(-n2cccc2/C=C2/C(=N)N3C(=NC2=O)SN=C3S(C)(=O)=O)cc1Cl`, the IC50 is 46.4 µM.

Take `COc1ccc(-c2ccc(/C=C3\SC(=S)N(CCCC(=O)O)C3=O)o2)cc1`: the IC50 was 36.6 µM.

In the case of `O=C(O)CCCN1C(=O)/C(=C\c2ccc(-c3ccc(Br)cc3)o2)SC1=S`, the IC50 was 3.49 µM.

`CCOC(=O)C1=C(C)N=c2s/c(=C\c3ccc(OCC(=O)O)cc3)c(=O)n2C1c1ccc(OC)c(OCC)c1` (stereo not drawn): the IC50 is 31.3 µM.

Turning to `O=C(O)CCCN1C(=O)/C(=C\c2ccc(-c3ccc(F)cc3)o2)SC1=S`, the IC50 was > 100 µM (inactive).

Regarding `O=C(O)c1ccc(C2Nc3ccc(S(=O)(=O)Nc4cc(Cl)ccc4Cl)cc3C3C=CCC32)cc1` (stereo not drawn), the IC50 is 28.4 µM.

For the compound `CS(=O)(=O)C1=NSC2=NC(=O)/C(=C\c3cccn3-c3cccc(F)c3)C(=N)N21`, the IC50 is 49.9 µM.

Turning to `Cc1c2c(=O)n(-c3nc4ccccc4s3)nc-2cc(O)n1Cc1ccncc1`, the IC50 was 2.96 µM.

As to `CS(=O)(=O)C1=NSC2=NC(=O)/C(=C\c3cccn3-c3cccc(C(F)(F)F)c3)C(=N)N21`, the IC50 was 46.6 µM.

On to `CS(=O)(=O)C1=NSC2=NC(=O)/C(=C\c3cccn3-c3ccc(Cl)c(Cl)c3)C(=N)N21`, for which the IC50 was 35.2 µM.

As to `Cc1c2c(=O)n(-c3nc4ccccc4s3)nc-2cc(O)n1CCc1ccc(O)cc1`, the IC50 is 5.19 µM.

Consider `O=C(O)c1ccc(C[n+]2c(-c3ccccc3)csc2Nc2ccccc2)cc1`, for which the IC50 was > 100 µM (inactive).

Regarding `Cc1c2c(=O)n(-c3nc4ccccc4s3)nc-2cc(O)n1Cc1cccnc1`, the concentration for half-maximal inhibition (IC50) was 3.54 µM.

For the compound `Cc1c2c(=O)n(-c3nc4ccccc4s3)nc-2cc(O)n1CCc1cccs1`, the IC50 was > 100 µM (inactive).

Regarding `CS(=O)(=O)C1=NSC2=NC(=O)/C(=C\c3cccn3-c3ccc(F)cc3)C(=N)N21`, the half-maximal inhibitory concentration (IC50) is 27.9 µM.

Take `CCOC(=O)C1=C(C)N=c2sc(=Cc3ccc(OCC(=O)O)cc3)c(=O)n2C1c1ccccc1` (stereo not drawn): the IC50 was 63.1 µM.

In the case of `CCOC(=O)C1=C(C)N=c2sc(=Cc3ccc(OCC(=O)O)cc3)c(=O)n2C1c1ccc(F)cc1` (stereo not drawn), the IC50 is 39.2 µM.

As for `COc1ccccc1Cn1c(O)cc2nn(-c3nc4ccccc4s3)c(=O)c-2c1C`, the IC50 is 17 µM.

Regarding `COc1ccc(CCn2c(O)cc3nn(-c4nc5ccccc5s4)c(=O)c-3c2C)cc1`, the IC50 is > 100 µM (inactive).

For `O=C(O)CCC(C(=O)O)N1C(=O)/C(=C\c2ccco2)SC1=S` (stereo not drawn), the IC50 was > 100 µM (inactive).

On to `COc1cccc(-n2cccc2/C=C2/C(=N)N3C(=NC2=O)SN=C3S(C)(=O)=O)c1`, for which the IC50 is > 100 µM (inactive).

In the case of `O=C(O)CCCN1C(=O)/C(=C/c2cc3ccccc3o2)SC1=S`, the IC50 is > 100 µM (inactive).

`Cc1c2c(=O)n(-c3nc4ccccc4s3)nc-2cc(O)n1CCC(C)C`: the IC50 was 39 µM.

Turning to `CS(=O)(=O)C1=NSC2=NC(=O)/C(=C\c3cccn3-c3cccc(Cl)c3)C(=N)N21`, the IC50 was 36.4 µM.

`O=C(O)c1ccc(C[n+]2c(-c3ccc([N+](=O)[O-])cc3)csc2Nc2ccccc2)cc1`: the IC50 is > 100 µM (inactive).
